# Measurements as given in BindingDB's records for patent US20240025893 (Asahi Kasei Pharma, 2024).
# Target: T1, Interleukin-1 receptor-associated kinase 4 (Homo sapiens, UniProt Q9NWZ3)
# T1 sequence (Q9NWZ3 whole entry): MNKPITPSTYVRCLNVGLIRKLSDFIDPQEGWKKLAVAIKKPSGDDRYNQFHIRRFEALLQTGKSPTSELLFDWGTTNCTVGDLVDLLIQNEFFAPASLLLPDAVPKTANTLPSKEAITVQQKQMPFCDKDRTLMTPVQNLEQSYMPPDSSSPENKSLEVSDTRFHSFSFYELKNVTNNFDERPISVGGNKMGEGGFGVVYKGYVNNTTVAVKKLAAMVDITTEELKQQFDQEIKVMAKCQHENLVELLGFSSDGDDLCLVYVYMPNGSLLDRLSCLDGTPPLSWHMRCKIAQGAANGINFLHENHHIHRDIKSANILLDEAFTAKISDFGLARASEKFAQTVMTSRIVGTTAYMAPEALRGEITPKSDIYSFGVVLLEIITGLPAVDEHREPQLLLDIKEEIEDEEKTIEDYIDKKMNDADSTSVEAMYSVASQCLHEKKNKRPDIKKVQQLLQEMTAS
# Assay: Measurement of Human IRAK-4 Inhibitory Activity
# Description: For the measurement of the activity of the human IRAK-4 (Invitrogen, Cat. PV3362), phosphorylation of the IRAK-4 peptide substrate (biotin-KKKKRFSFKKSFKC) by the enzyme in the presence of 10 μM ATP (Sigma-Aldrich, Cat. A7699) was measured by the TR-FRET method. The enzymatic reaction was performed in a reaction buffer containing 50 mM HEPES (pH 7.2), 1 mM DTT, 0.1 mM Na3VO4, 5 mM MgCl2, 1 mM MnCl2, and 0.1% bovine serum albumin. For the measurement of the IRAK-4 inhibitory activity, a test compound was added to the reaction buffer containing 1 nM IRAK-4, 0.5 μM peptide substrate, and 10 μM ATP, and the mixture was incubated at 23° C. for 30 minutes. Then, a detection solution containing an antibody labeled with europium cryptate (0.3 μg/mL, the antibody was prepared by using the IRAK-4 peptide substrate as the antigen), streptavidin-XL665 (2 μg/mL, CisBio, Cat. 610SAXLB), 50 mM HEPES (pH 7.2), 0.1% BSA, 120 mM KF, and 66.7 mM EDTA (all the concentrations of the reagents are final concentrations) was added to terminate the reaction, and then the mixture was further incubated at 23° C. for 60 minutes.
row,IC50 [nM],Compound
1,3.29,"CO[C@H]1C[C@@H](C(=O)Nc2nc3ccc(-c4cnc(CO[C@H]5CCC[C@@H]5O)nc4)cc3s2)C1 [US20240025893, Example a-01-06]"
2,1.75,"CC(C)(C)OC1CC(C(=O)Nc2cc3cc(-c4cnc(CO[C@H]5CCC[C@@H]5O)nc4)ccn3n2)C1 (some centres not stated) [US20240025893, Examplee-03-01]"
